Test results: PMC3115594 (Current Chemical Genomics, 2010)
pEC50: −log10 of the molar value.

Assays:
[1] = test system: constitutive Renilla reporter expression in HEK293 cells; assay: Renilla luciferase internal control reporter; assay type: cell-based; settings: E2 titration, treated/untreated (Fig. 5)
[2] = biological target: T1, GR (pBIND-GR, GR-LBD/GAL4 DBD) (Homo sapiens, UniProt P04150); assay type: cell-based; settings: for Induction: GR agonist, fold-induction, 384-well
T1 sequence (P04150 500-777): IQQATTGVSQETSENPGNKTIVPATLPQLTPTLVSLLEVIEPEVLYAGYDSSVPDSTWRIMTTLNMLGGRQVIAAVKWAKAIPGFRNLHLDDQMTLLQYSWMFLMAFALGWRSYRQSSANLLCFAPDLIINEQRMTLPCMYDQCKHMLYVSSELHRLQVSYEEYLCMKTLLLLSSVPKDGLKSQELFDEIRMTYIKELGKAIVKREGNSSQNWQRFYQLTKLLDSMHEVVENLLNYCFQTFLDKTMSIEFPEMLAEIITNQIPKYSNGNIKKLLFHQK

Row | Induction [2] | pEC50 [2] | Compound | Renilla reporter induction [1]
1 | – | – | C[C@]12CC[C@@H]3c4ccc(O)cc4CC[C@H]3[C@@H]1CC[C@@H]2O [17β-estradiol, 17β- estradiol] | around 1.0
2 | 760 | – | C[C@@H]1C[C@H]2[C@@H]3CCC4=CC(=O)C=C[C@]4(C)[C@@]3(F)[C@@H](O)C[C@]2(C)[C@@]1(O)C(=O)CO [Dexamethasone, dexamethasone] | –
3 | 450 | – | C[C@]12CCC(=O)C=C1CC[C@@H]1[C@@H]2[C@@H](O)C[C@@]2(C)[C@H]1CC[C@]2(O)C(=O)CO [Hydrocortisone, hydrocortisone] | –
4 | 42 | 4.68 | C[C@]12CCC(=O)C=C1CC[C@@H]1[C@@H]2[C@@H](O)C[C@]2(C=O)[C@@H](C(=O)CO)CC[C@@H]12 [aldosterone] | –
